Results from patent US20170202219A1, “CLOQUINTOCET SALTS FOR SAFENING PYROXSULAM COMPOSITIONS” (Dow AgroSciences LLC, priority 2016, published 2017).
Read-outs that look alike come from different tables or passages of the source.

Key:
[1] = system: wild oats (Avena fatua L., AVEFA); test: Greenhouse evaluation, control of wild oats; assay type: in vivo; details: pyroxsulam:cloquintocet (AE) 1:2.1, postemergence spray
Text: A peat based potting soil, Metro-mix 360, (produced by Sun Gro Horticulture Canada CM Ltd) was used as the soil media for this test. Metro-mix 360 is a growing medium consisting of Canadian sphagnum peat moss, coarse perlite, bark ash, starter nutrient charge (with gypsum) and slow release nitrogen and dolomitic limestone. Several seeds of each crop or weed species were planted in 10 cm square pots and top watered twice daily. Plant material was propagated in greenhouse zone E2 at temperatures ranging from 18 to 20° C. and 50 to 60% relative humidity. Natural light was supplemented with 1000-watt metal halide overhead lamps with an average illumination of 500 microeinsteins per square meter per second (μE m^−2 s^−1) photosynthetic active radiation (PAR). Day length was 16 hours. Plant material was top-watered prior to treatment and sub-irrigated after treatment.
Herbicides were applied with a track sprayer manufactured by Allen Machine Works and located in building 306, room E1-483, at the Dow AgroSciences Indianapolis, Ind. Global Headquarters site (9330 Zionsville Road, Indianapolis, Ind., USA). The track sprayer was calibrated to deliver 50 L/ha at 40 psi (262 kPa) pressure utilizing an 8001E even flat fan nozzle tip with a speed of 1.6 mph (2.6 km/h). The nozzle height was 46 cm above the plant canopy. Appropriate amounts of formulated product were added to vials as calculated by the software package ARM8 (Gylling Data Management Inc.). The vials contained a pH 7 phosphate buffer (Fischer Scientific) and the herbicide aliquots were diluted to a total volume of 60 ml. The growth stage of the crop and weed species at application was 2 to 4 leaf (Table 11). The application rates were 0, 17.8 and 37.6 g ai/ha of pyroxsulam for crop tolerance comparisons and 0, 2.35 and 4.7 g ai/ha of pyroxsulam for weed control comparisons. Cloquintocet was applied at a 1:2.1 ratio of pyroxsulam (g ai):cloquintocet (g ae) in all treatments containing the safener. Treatments were replicated 4 times. Plants were returned to the greenhouse after treatment and sub-watered throughout the duration of the experiment. Plant material was fertilized twice weekly with Hoagland's fertilizer solution that is readily available in the greenhouses. Percent visual injury assessments were made on a scale of 0 to 100% as compared to the untreated control plants (where 0 is equal to no injury and 100 is equal to complete death of the plant.
Visual determination of the control of wild oats (Avena fatua L., AVEFA) treated with pyroxsulam alone and with several forms of cloquintocet was conducted. All forms of cloquintocet were applied at a 1:2.1 weight ratio of pyroxsulam:cloquintocet (AE).

cell membranes [2] = system: cell membranes
[3] = Water solubility of cloquintocet salts at 20° C.
[4] = system: spring wheat (Triticum aestivum L., TRZAS); details: pyroxsulam:cloquintocet (AE) 1:2.1, postemergence spray
[5] = system: durum wheat (Triticum durum L. TRZDU); details: pyroxsulam:cloquintocet (AE) 1:2.1, postemergence spray
cell membranes [6] = system: cell membranes; remark: listed apart in the source
cell membranes [7] = test: Neutral Red Release (NRR) assay, eye irritation potential of aqueous CQC salt solutions; details: for NRR50, mg ae/mL: aqueous solution of the CQC salt diluted in PBS, NRR50 corrected to CQC acid equivalent concentration
[8] = solubility solution, water, 20° C.

O=C(O)COc1ccc(Cl)c2cccnc12 [Acid, Cloquintocet]
AVEFA Control 21 DAA (% Control) ([1]; pyroxsulam 2.35 g ai/ha): 96 % Control
AVEFA Control 21 DAA (% Control) ([1]; pyroxsulam 4.7 g ai/ha): 99 % Control
NRR50, mg ae/mL (cell membranes [2]): 9 mg ae/mL
Calculated water solubility wt % ai ([3]; pH 7 buffer solution, 20° C.): 1.4 wt % ai
Density ([3]; pH 7 buffer solution, 20° C.): 1.0 g/mL
Neat pH ([3]; pH 7 buffer solution, 20° C.): 5.6
Water Solubility wt % ae ([3]; pH 7 buffer solution, 20° C.): 1.4 wt % ae
Water Solubility wt % ae ([3]; pH 7 buffer solution, 20° C., listed as CQC acid): about 1.4 wt % ae

OCCNCCO [Diethanolamine]
AVEFA Control 21 DAA (% Control) ([1]; pyroxsulam 2.35 g ai/ha): 88 % Control
AVEFA Control 21 DAA (% Control) ([1]; pyroxsulam 4.7 g ai/ha): 94 % Control

CCNCC [Diethylamine]
AVEFA Control 21 DAA (% Control) ([1]; pyroxsulam 2.35 g ai/ha): 88 % Control
AVEFA Control 21 DAA (% Control) ([1]; pyroxsulam 4.7 g ai/ha): 99 % Control
TRZAS Injury 22 DAA (% Injury) ([4]; pyroxsulam 18.8 g ai/ha): 5 % Injury
TRZAS Injury 22 DAA (% Injury) ([4]; pyroxsulam 37.6 g ai/ha): 15 % Injury
TRZDU Injury 22 DAA (% Injury) ([5]; pyroxsulam 18.8 g ai/ha): 12 % Injury
TRZDU Injury 22 DAA (% Injury) ([5]; pyroxsulam 37.6 g ai/ha): 18 % Injury

CC(O)CNCC(C)O (centres unmarked) [Diisopropanolamine]
Density [3, 8]: 1.1 g/mL
Neat pH [3, 8]: 6.4

CC(C)NC(C)C [Diisopropylamine]
Density [3]: 1.1 g/mL
Neat pH [3]: 5.9

CNC [Dimethylamine]
AVEFA Control 21 DAA (% Control) ([1]; pyroxsulam 2.35 g ai/ha): 88 % Control
AVEFA Control 21 DAA (% Control) ([1]; pyroxsulam 4.7 g ai/ha): 90 % Control
TRZAS Injury 22 DAA (% Injury) ([4]; pyroxsulam 18.8 g ai/ha): 11 % Injury
TRZAS Injury 22 DAA (% Injury) ([4]; pyroxsulam 37.6 g ai/ha): 11 % Injury
TRZDU Injury 22 DAA (% Injury) ([5]; pyroxsulam 18.8 g ai/ha): 9 % Injury
TRZDU Injury 22 DAA (% Injury) ([5]; pyroxsulam 37.6 g ai/ha): 15 % Injury
Density [3]: 1.2 g/mL
Neat pH [3]: 6

CC(O)CN (centres unmarked) [Isopropanolamine]
AVEFA Control 21 DAA (% Control) ([1]; pyroxsulam 2.35 g ai/ha): 80 % Control
AVEFA Control 21 DAA (% Control) ([1]; pyroxsulam 4.7 g ai/ha): 90 % Control
NRR50 (% v/v) (cell membranes [6]): 29 % v/v
NRR50, mg ae/mL (cell membranes [6]): 56 mg ae/mL
TRZAS Injury 22 DAA (% Injury) ([4]; pyroxsulam 18.8 g ai/ha): 2 % Injury
TRZAS Injury 22 DAA (% Injury) ([4]; pyroxsulam 37.6 g ai/ha): 20 % Injury
TRZDU Injury 22 DAA (% Injury) ([5]; pyroxsulam 18.8 g ai/ha): 9 % Injury
TRZDU Injury 22 DAA (% Injury) ([5]; pyroxsulam 37.6 g ai/ha): 12 % Injury
Density [3]: 1.1 g/mL
Neat pH [3, 8]: 7.4

CC(C)N [Isopropylamine]
AVEFA Control 21 DAA (% Control) ([1]; pyroxsulam 2.35 g ai/ha): 90 % Control
AVEFA Control 21 DAA (% Control) ([1]; pyroxsulam 4.7 g ai/ha): 99 % Control
Density [3]: 1.1 g/mL
Neat pH [3]: 5.7

NCCO [Monoethanolamine]
Density [3, 8]: 1.1 g/mL
Neat pH [3, 8]: 6.3

CN(C)CCO [N,N-dimethylethanolamine]
Neat pH [3, 8]: 5.7

COc1cc(OC)n2nc(NS(=O)(=O)c3c(C(F)(F)F)ccnc3OC)nc2n1 [Pyroxsulam, N-(5,7-dimethoxy [1,2,4]triazolo [1,5-a]pyrimidin-2-yl)-2-methoxy-4-(trifluoromethyl)pyridine-3-sulfonamide]
AVEFA Control 21 DAA (% Control) ([1]; pyroxsulam 2.35 g ai/ha): 86 % Control
AVEFA Control 21 DAA (% Control) ([1]; pyroxsulam 4.7 g ai/ha): 98 % Control

CCCCCCCCCCCCOS(=O)(=O)[O-].[Na+] [SDS, Sodium dodecyl sulfate]
NRR assay result of positive control (cell membranes [7]; 5 mg/ml, two independent assay replicates): positive

CCCCCC(C)OC(=O)COc1ccc(Cl)c2cccnc12 (centres unmarked) [mexyl, cloquintocet-mexyl, reference compound]
AVEFA Control 21 DAA (% Control) ([1]; pyroxsulam 2.35 g ai/ha): 71 % Control
AVEFA Control 21 DAA (% Control) ([1]; pyroxsulam 4.7 g ai/ha): 84 % Control

Ammonium [reference compound]
Density [3, 8]: 1.0 g/mL
Neat pH [3, 8]: 5.7
NRR50, mg ae/mL (cell membranes [7]): 3 mg ae/mL

cloquintocet choline salt
AVEFA Control 21 DAA (% Control) ([1]; pyroxsulam 2.35 g ai/ha): 94 % Control
AVEFA Control 21 DAA (% Control) ([1]; pyroxsulam 4.7 g ai/ha): 99 % Control
TRZAS Injury 22 DAA (% Injury) ([4]; pyroxsulam 18.8 g ai/ha): 6 % Injury
TRZAS Injury 22 DAA (% Injury) ([4]; pyroxsulam 37.6 g ai/ha): 21 % Injury
TRZDU Injury 22 DAA (% Injury) ([5]; pyroxsulam 18.8 g ai/ha): 9 % Injury
TRZDU Injury 22 DAA (% Injury) ([5]; pyroxsulam 37.6 g ai/ha): 12 % Injury
Density [3]: 1.1 g/mL
Neat pH [3]: 6.8
NRR50, mg ae/mL (cell membranes [7]): 213 mg ae/mL
